Test [1] has as its target T1, WT E. coli PNP (Escherichia coli, UniProt P0ABP8).
T1 construct: made in house
T1 sequence (P0ABP8 2-239 limits assumed): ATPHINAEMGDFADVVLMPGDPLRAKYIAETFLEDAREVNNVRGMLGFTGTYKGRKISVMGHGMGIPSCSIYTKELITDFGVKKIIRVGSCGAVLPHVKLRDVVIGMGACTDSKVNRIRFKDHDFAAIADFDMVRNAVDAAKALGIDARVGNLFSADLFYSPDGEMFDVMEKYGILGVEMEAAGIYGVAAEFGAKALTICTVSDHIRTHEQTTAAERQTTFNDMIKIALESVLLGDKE
Briefly: Inhibition of m^7Guo phosphorolysis. The format is biochemical. Particulars: competitive inhibition Eq. (3), m^7Guo as variable substrate, 50 mM phosphate, pH 7.0, 25 °C. The procedure:
All activity measurements and kinetic studies were done in 50 mM Hepes/HCl buffer pH 7.0 at 25 °C as previously described for the WT E. coli PNP and its active-site mutants, using direct spectrophotometric assay for adenosine, guanosine and 7-methylguanosine as substrates, and a coupled assay with xanthine oxidase in the case of inosine[13],[28],[29]. Activity measurements were performed for each protein sample, before and after each experiment as a control of the state of the protein.
To determine inhibition model and inhibition constant for formycin A, rate of phosphorolysis with m^7Guo as a variable substrate, at constant, 50 mM, phosphate concentration, was registered in the absence of the inhibitor and in the presence of two different concentrations of formycin. A global fitting to the whole data set was performed, using various models (competitive, uncompetitive, noncompetitive, mixed). As expected for the substrate analogue, competitive model described the data sufficiently well:3 v0c0=Vmax1c0/c0+KM1+ci/Ki where ci is inhibitor concentration. Kinetic data were analysed using the GraphPad Prism program (Intuitive Software for Science, San Diego, CA, USA).

The target of test [2] is T1, WT E. coli PNP. Briefly: Near-UV CD titrations. The format is binding. Particulars: for Kd: CD titrations with phosphate, three-binding-site model, 25 °C. The procedure: (§1) Experiments were performed with Chirascan spectrophotometer (Applied Photophysics), in the near UV region (240–290 nm), thus in the region where aromatic amino acids absorb. Full spectra of the protein/complex were recorded, with 0.2 nm resolution and 2 s averaging per point. Enzyme concentration was in the range of 20–120 μM, the 50 mM Tris/HCl buffer pH 7.6 was used, ligands were dissolved in the same buffer. All measurements were performed at 25 °C. Upon addition of each volume of phosphate solution spectrum was recorded in the range 230–300 nm, in the amino acids absorption region, with 0.25 nm step and 2 s per point signal averaging. Spectra were smoothed with Savitzky-Golay algorithm[44] using a fourth degree polynomial and eleven points in the averaging window. The wavelengths of the greatest signal change were determined by calculating differential spectra. These wavelengths were used to plot the titration curves. Global analysis of five to seven curves was performed with DynaFit4[40].
(§2) Three models were taken into account in analysis of binding curves: model with one (first equation below), two (first two equations) and three binding sites. P+L⇔PLwithKd1PL+L⇔PLLwithKd2PLL+L⇔PLLLwithKd3
(§3) The model with one binding site is based on the assumption that all monomers are equivalent, and there is no cooperation between them. In the model with two binding sites the basic functional unit of the protein is a dimer, possible non-equivalence of binding sites or cooperativity between active sites in the dimer are taken into account (in the case of no cooperativity dissociation constants should be related statistically: Kd2 = 4Kd1), the dimers within hexamer are equivalent. The model with three binding sites is based on the crystallographic structures of binary and ternary complexes of PNP with ligands, where two of the dimers are in the “open-closed” conformation, but the third dimer is symmetrical, in the “open-open” conformation. Thus, active sites in the open conformation belonging to “open-closed” and “open-open” dimer may not be equivalent. […]
(§4) Titration series were analysed globally, always starting from the simplest, one-binding-site model. […] For all tested models the Akaike information criterion[23] was also calculated. […] Analysed models were fitted to the raw data, whereas graphs presented in this study were prepared from the normalised data and the fitted curves. […] Responses are defined as changes in a measured physical quantity related to the formation of subsequent protein–ligand complexes: intrinsic protein fluorescence intensity, fluorescence intensity of the dye, heat and ellipticity for fluorimetric, thermophoretic, calorimetric and CD titrations, respectively. […]

Test [3] concerns the target Y160W PNP mutant (Escherichia coli, UniProt P0ABP8, Y161W). Briefly: Near-UV CD titrations. The format is binding, E. coli. Also noted: made in house; host or cells: E. coli DH5α-T1. The note with it: for Kd: CD titrations with phosphate, three-binding-site model, 25 °C. Here is the method: as §1, §2, §3, §4
In test [4] the target is T1, WT E. coli PNP. Also noted: method as in PMID 30337572. Particulars: phosphate as variable substrate, 250 μM m^7Guo, allostery Eq. (2), cited from earlier work.
Setting [5] is: 50 mM Tris/HCl pH 7.6, read-out: Kd1 ± SD.
The mark [6] stands for this setting: 50 mM Tris/HCl pH 7.6, read-out: Kd2 ± SD.
The mark [7] stands for this setting: 50 mM Tris/HCl pH 7.6, read-out: Kd3 ± SD.

Read-outs that look alike come from different tables or passages of the source.

The source of these data is article PMC8160210, “Single tryptophan Y160W mutant of homooligomeric E. coli purine nucleoside phosphorylase implies that dimers forming the hexamer are functionally not equivalent” (Scientific Reports, 2021).

Y160W PNP mutant, sequence (P0ABP8 2-239 Y161W): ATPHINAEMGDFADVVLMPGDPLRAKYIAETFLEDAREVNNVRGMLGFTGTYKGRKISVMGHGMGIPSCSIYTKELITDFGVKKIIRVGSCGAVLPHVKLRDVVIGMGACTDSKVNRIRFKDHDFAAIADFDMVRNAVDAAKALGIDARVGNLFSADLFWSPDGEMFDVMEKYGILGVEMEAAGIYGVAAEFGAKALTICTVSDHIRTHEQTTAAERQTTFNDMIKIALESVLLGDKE

For orientation: Ki means a measure of affinity in units of concentration, obtained from inhibition or displacement. High values mean a looser hold on the target, low ones a stronger hold on the target. With `Nc1ncnc2c([C@@H]3O[C@H](CO)[C@@H](O)[C@H]3O)[nH]nc12` [FA, Formycin A], affinity in test [1] was put at a Ki of 5.3 ± 0.4 µM. For the same compound, the “Change in CD signal upon binding” value in test [2] (formycin A binding) and in test [3] (formycin A binding) was “no changes in the CD signal” throughout.

The term Km denotes the concentration of substrate that gives half-maximal velocity. On to `O=P(O)(O)O` [Pi, Orthophosphate], for which the Kd was 0.58 µM in test [2] (setting [5]); 107 µM in test [2] (setting [6]); 1030 µM in test [2] (setting [7]); 4.13 µM in test [3] (setting [5]); 128 µM in test [3] (setting [6]); 2330 µM in test [3] (setting [7]). Besides, the Km in test [4] (pH 7.0, 25 °C) was 15 ± 4 µM. In test [4] (pH 7.0, 25 °C), the Vmax is on record as 10.8 ± 0.7 U/mg. Besides, in test [4], the “a (cooperativity coefficient, KM2 = aKM1)” value was 267 ± 232. Further, the “b (cooperativity coefficient, Vmax2 = bVmax1)” value in test [4] is given as 0.76 ± 0.06.
